Measurements taken from PubChem BioAssay (NCI).
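In this assay, cells in 96-well plates receive the compound at five concentrations for 48 hours. Endpoints are linearly interpolated between the surrounding concentrations. GI50 = concentration required for 50% inhibition of growth. TGI marks complete inhibition of growth.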

Legend:
Assay in all cases: NCI tumour cell line growth inhibition, 48 h
OVCAR-3 ovarian = system: OVCAR-3 ovarian
A498 renal = system: A498 renal
SK-OV-3 ovarian = system: SK-OV-3 ovarian
SK-MEL-5 melanoma = system: SK-MEL-5 melanoma
NCI-H522 lung = system: NCI-H522 lung
NCI-H226 lung = system: NCI-H226 lung
HCC-2998 colon = system: HCC-2998 colon
HL-60(TB) leukemia = system: HL-60(TB) leukemia
HS 578T breast = system: HS 578T breast
T-47D breast = system: T-47D breast

| SMILES | TGI (OVCAR-3 ovarian) | TGI (A498 renal) | TGI (SK-OV-3 ovarian) | TGI (SK-MEL-5 melanoma) | TGI (NCI-H522 lung) | TGI (NCI-H226 lung) | TGI (HCC-2998 colon) | TGI (HL-60(TB) leukemia) | GI50 (OVCAR-3 ovarian) | GI50 (A498 renal) | GI50 (SK-OV-3 ovarian) | GI50 (NCI-H226 lung) | GI50 (HCC-2998 colon) | GI50 (HS 578T breast) | TGI (HS 578T breast) | GI50 (SK-MEL-5 melanoma) | GI50 (HL-60(TB) leukemia) | GI50 (NCI-H522 lung) | GI50 (T-47D breast) | TGI (T-47D breast) |
| --- | --- | --- | --- | --- | --- | --- | --- | --- | --- | --- | --- | --- | --- | --- | --- | --- | --- | --- | --- | --- |
| Cn1c(=O)c2[nH]cnc2n(CC(N)=O)c1=O | > 100 µM | > 100 µM | > 100 µM | > 100 µM | > 100 µM | – | – | – | – | – | – | – | – | – | – | – | – | – | – | – |
| COC1C2c3cc4c(cc3CC(C#N)(c3ccccc32)N1C(=O)c1ccccc1)OCO4 (centres undefined) | > 100 µM | – | > 100 µM | > 100 µM | > 100 µM | > 100 µM | > 100 µM | > 100 µM | – | – | – | – | – | – | – | – | – | – | – | – |
| COC1OC(C)C2OC(C)(C)OC2C1OC(C)=O (centres undefined) | > 100 µM | > 100 µM | – | > 100 µM | > 100 µM | > 100 µM | > 100 µM | > 100 µM | – | – | – | – | – | – | – | – | – | – | – | – |
| O=C(/C=C/C12c3ccccc3C(c3ccccc31)C1C(=O)NC(=O)C12)c1ccc(Cl)cc1 (centres undefined) | 3.26 µM | 2.6 µM | 3.87 µM | 3.08 µM | 3.3 µM | 5 µM | 3.37 µM | 8.86 µM | 1.63 µM | 1.28 µM | 1.85 µM | 1.92 µM | 1.69 µM | 1.94 µM | 7.22 µM | 1.7 µM | 1.47 µM | 1.46 µM | – | – |
| CCOC(=O)C(CNc1ccc(O)cc1)NC(=O)c1ccccc1 (centres undefined) | > 100 µM | > 100 µM | > 100 µM | > 100 µM | > 100 µM | > 100 µM | > 100 µM | 73.3 µM | – | – | – | – | – | – | – | – | – | – | – | – |
| NCCCCCCNCc1cccc2ccccc12 | > 100 µM | – | > 100 µM | > 100 µM | > 100 µM | > 100 µM | – | > 100 µM | – | – | – | – | – | – | – | – | – | – | – | – |
| O=C(N/N=C/c1cc(Cl)cc(Cl)c1[O-])c1ccccc1.O=C(N/N=C/c1cc(Cl)cc(Cl)c1[O-])c1ccccc1.[Co+2] | > 100 µM | > 100 µM | > 100 µM | > 100 µM | – | 92.2 µM | > 100 µM | 8.89 µM | 3.18 µM | 34.4 µM | 40.9 µM | 26.5 µM | 40.7 µM | – | – | 29 µM | 2.62 µM | – | – | – |
| C/C=C/COC(=O)CO[N+](=O)[O-] | > 100 µM | – | > 100 µM | – | > 100 µM | > 100 µM | > 100 µM | > 100 µM | – | – | – | – | – | – | – | – | – | – | – | – |
| Cc1ccc(-c2nc([P+](c3ccccc3)(c3ccccc3)c3ccccc3)c(Nc3ccccc3)o2)cc1 | 0.886 µM | 2.46 µM | 3.08 µM | 1.48 µM | 1.15 µM | – | 2.02 µM | 1.3 µM | 0.288 µM | 1.12 µM | 1.44 µM | – | 0.659 µM | 1.27 µM | 3.31 µM | 0.406 µM | 0.395 µM | 0.259 µM | – | – |
| Cc1ccc(C)c(NC(=O)CC2SC(=Nc3ccccc3Cl)NC2=O)c1 (centres undefined) | > 100 µM | > 100 µM | > 100 µM | > 100 µM | 96.5 µM | > 100 µM | > 100 µM | > 100 µM | – | – | – | – | – | – | – | – | – | – | – | – |
| CCCCCCCCCCCCCC(=O)CSCCNC(=O)CCNC(=O)[C@@H](O)C(C)(C)COP(=O)(O)OP(=O)(O)OCC1OC(n2cnc3c(N)ncnc32)C(O)C1OP(=O)(O)O (some centres undefined) | > 100 µM | 35.5 µM | 27.8 µM | 34.5 µM | 25.5 µM | 35.7 µM | 35.7 µM | 51.4 µM | – | – | – | – | – | – | – | – | – | – | – | – |
| O=c1cc(-c2ccccc2)oc2cc(OC/C(=N/O)c3ccc(F)cc3)ccc12 | 35.6 µM | – | > 50 µM | 21.1 µM | > 50 µM | > 50 µM | 45.8 µM | > 50 µM | 11.4 µM | – | 47.9 µM | 27.6 µM | 15.3 µM | – | – | 8.75 µM | 19 µM | 14.9 µM | 25.5 µM | > 50 µM |
| CCN(CC)CCn1[nH]c2c3ccc(=O)cc3sc3c(NCCN)ccc1c32 | 8.17 µM | 3.32 µM | 3.74 µM | 2.91 µM | – | – | – | – | – | – | – | – | – | – | – | – | – | – | – | – |
| COc1ccc(Cn2cc3c(c2-c2ccccc2)CCc2cnoc2-3)cc1N | 0.244 µM | 0.64 µM | > 100 µM | 2.58 µM | 0.339 µM | > 100 µM | > 100 µM | 0.617 µM | 0.0526 µM | 0.0638 µM | 0.252 µM | 2.24 µM | 0.496 µM | – | – | 0.0617 µM | 0.137 µM | 0.027 µM | 3.86 µM | > 100 µM |
| CCOC(=O)/C=C/C(=O)[C@H](CC(C)C)NC(=O)[C@H](Cc1ccccc1)NC(=O)OCc1ccccc1 | 10.4 µM | – | 32.6 µM | 31.1 µM | 4.37 µM | 60.4 µM | 30.1 µM | 9.67 µM | 3.19 µM | – | 18.6 µM | 26.4 µM | 15.6 µM | 10.9 µM | 67.9 µM | 16.4 µM | 2.26 µM | 2.1 µM | 2.1 µM | 4.66 µM |
